For 4 compounds, Activity and IC50 results are on record in ChEMBL document CHEMBL5223093, “Recent advances in the discovery of protein tyrosine phosphatase SHP2 inhibitors” (RSC Med Chem, 2022).

Test [1] in a line: Downregulation of DUSP6 transcription in human KYSE-520 cells at 30 uM measured after 2 hrs relative to control. In kind it is functional.
Test [2] addresses T1, Tyrosine-protein phosphatase non-receptor type 11 (Homo sapiens, UniProt Q06124).
T1 sequence (Q06124 whole entry): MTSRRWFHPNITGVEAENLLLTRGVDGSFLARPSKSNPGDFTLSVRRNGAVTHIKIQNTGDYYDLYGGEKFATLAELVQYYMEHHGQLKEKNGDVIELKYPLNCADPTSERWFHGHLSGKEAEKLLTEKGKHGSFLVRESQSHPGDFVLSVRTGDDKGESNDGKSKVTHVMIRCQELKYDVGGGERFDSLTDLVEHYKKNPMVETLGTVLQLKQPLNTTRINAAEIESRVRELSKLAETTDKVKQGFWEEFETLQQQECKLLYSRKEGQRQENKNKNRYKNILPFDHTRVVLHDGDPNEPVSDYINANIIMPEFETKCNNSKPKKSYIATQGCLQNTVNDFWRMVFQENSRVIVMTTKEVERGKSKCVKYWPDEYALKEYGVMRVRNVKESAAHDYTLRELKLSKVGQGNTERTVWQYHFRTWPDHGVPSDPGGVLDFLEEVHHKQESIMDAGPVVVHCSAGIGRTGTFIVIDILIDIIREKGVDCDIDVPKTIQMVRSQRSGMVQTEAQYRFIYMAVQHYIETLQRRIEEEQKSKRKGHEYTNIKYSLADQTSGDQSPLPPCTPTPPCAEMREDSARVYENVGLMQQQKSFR
In words: Inhibition of full length SHP2 (unknown origin) using DiFMUP as substrate preincubated for 30 mins followed by substrate addition.

Take `COc1cccc(-c2nnc3n(Cc4ccccc4Cl)c(=O)c4ccccc4n23)c1O`: the Activity in test [1] amounted to 65%.

In the case of `O=C(O)c1ccc(O)c(-c2nnc3n(Cc4ccccc4Cl)c(=O)c4ccccc4n23)c1`, the Activity in test [1] was found to be 55%.

On to `COc1cccc(-c2nnc3n(Cc4ccc(C(=O)N5CCC[C@H]5C(=O)O)cc4Cl)c(=O)c4ccccc4n23)c1O`, for which, in test [1], the Activity was 43%.

For orientation: IC50 means the concentration needed to halve the response being measured. Low readings indicate greater potency in that assay, high ones weaker potency in that assay. Turning to `Cc1nc(N2CCC3(CC2)OC[C@@H](C)[C@H]3N)c(CO)nc1-c1cccc(Cl)c1Cl`, the midpoint of inhibition in test [2], the IC50, lay at 0.583 nM.
